Measurements from patent US20230014226A1, “NEW COMPOUNDS AND METHODS” (BenevolentAI Bio Limited, priority 2019, published 2023).

What was measured:
[1] = system: murine Hb9-GFP+ motor neurons in co-culture with ALS patient iAstrocytes; assay: Human iAstrocyte - murine Hb9-GFP+ motor neuron co-culture; type: cell-based, human iAstrocytes
From the text: iNPCs (induced Neuronal Progenitor Cells) were derived from ALS patient fibroblasts as described previously (Meyer et al. 20148). iNPCs were differentiated into iAstrocytes by culturing in iAsrocyte media for at least 5 days. Murine motor neurons expressing the green fluorescent protein (GFP) under the Hb9 motor neuron-specific promoter (called from now on Hb9-GFP+) were differentiated from murine embryonic stem cells via embryoid bodies (EBs), as previously described (Haidet-Phillips et al. 20119, Wichterle et al. 200210).
iNPCs and mESC were split into iAstrocyte media and mEB media respectively on the same day, such that iAstrocytes and motor neurons will have both differentiated for 7 days when seeded together in co-culture.
Changed media on iAstrocytes, and split using accutase if 90-100% confluent 3 days after seeding from iNPCs. iAstrocytes were left a further 2 days in iAstrocyte media until seeded onto 384-well plates.
Diluted fibronection 1:400 in PBS, and 5 μL added per well. The plate was incubated with fibronectin at room temp for at least 5 mins.
The media was removed from iAstrocytes, and washed in PBS. 1 mL accutase per 10 cm plate was added, and incubated at 37° C. for 4 mins. The plate was tapped to dislodge any remaining iAstrocytes. The iAstrocytes were resuspended in iAstro media, and centrifuged at 200×g for 4 mins. The supernatant was removed, the falcon was flicked to vortex the cells, and resuspended the cells in an appropriate amount of iAstrocyte media. Counted cells using the haemocytometer, and diluted cells to an appropriate dilution for seeding. Seeded 1-2,000 iAstrocytes in 35 μL media on fibronectin-coated 384-well plates. Centrifuged 384-well plates at 1,760×rpm for 60 s using a PK120 (ALC) centrifuged (in neurogenetics) to collect media and cells to base of wells. Plates were left for 24 h for iAstrocytes to adhere to plate.
Drugs were delivered in 100% drug-grade DMSO to iAstrocyte media using an Echo550 liquid handler (Labcyte). 384-well plates were centrifuged at 1,760×rpm for 60 s using a PK120 (ALC) centrifuge.
2 plates of EBs were collected in a 50 mL tube and centrifuged for 4 mins at 200×g. The supernatant was removed from EBs after centrifugation, and washed in 10 mL PBS then centrifuged again for 4 mins at 200×g, and PBS wash removed.
For each 50 mL tube, 2.75 mL EB dissociation buffer was added and then 250 μL 200 U/mL (10×) Papain. The solution was gently pipetted up and down 10 times, using a P1000 pipette, against the side of the falcon (EB pellet was not pipetted directly). 50 mL tube was put in 37° C. water bath and incubated for 5 mins. Tube removed every 3 mins and gently shaken. After 5 mins, additional 2 mL of EB dissociation and 100 μL 200 U/mL (10×) Papain were added, which was then pipette again 5 times with P1000 pipette, and returned to the water bath for another 5 mins. It was returned to water bath as before, and incubated for no longer than 15-20 mins.
Centrifuged for 5 mins at 300×g. Each 50 mL tube, 2.7 mL EB dissociation was prepared, to which 300 μL FBS and 150 μL 0.5 mg/mL DNaseI was added. The supernatant was removed from dissociated EBs and 3 mL of the FBS/DNaseI mix was added, pipetted up and down with P1000 pipette about 5 times. 5 mL FBS was added very slowly to the bottom of the falcon containing the dissociated EBs. The supernatant was removed and the cells very gently resuspended in about 3 mL MN media (more used if the pellet is large) and filtered through a 40 μm filter. 1 mL extra MN media was added to wash the filter.
2,500 murine Hb9-GFP+ motor neurons were seeded per well in 10 μL motor neuron media on top of the pre-treated iAstrocytes. 384-well plates were centrifuged at 1,760×rpm for 60 s using a PK120 (ALC) centrifuge.
Day8 15 μL motor neuron media were added per well. Hb9-GFP+ motor neurons were imaged using an INCELL analyser 2000 (GE Healthcare)—day 1 of co-culture. […]

[2] = system: HUVEC (human umbilical venous endothelial cells); assay: HUVEC Tube Formation assay; type: cell-based; conditions: 18 h incubation, read-out: Tube formation GI50
Experimental: HUVEC (human umbilical venous endothelial cells, 1.5×10^4/well, ATCC CRL-1730) are placed in an earlier prepared 96-well plate. Test substance and/or vehicle is then added to each well in a final concentration of 0.4% DMSO in growth medium under an atmosphere of 5% CO2 at 37° C. After an 18 h incubation period, morphology of the endothelial cell tubes, which resemble a capillary-like network, are evaluated by a confocal high-content imaging system. Disruption (anti-angiogenesis) of total tube length is measured from each photograph and determined relative to the vehicle control group. […] Compounds are screened at 30, 3, 0.3, 0.03 and 0.003 μM (or μg/mL) in triplicate.

HUVEC = HUVEC Cell Viability (CV) assay; type: cell-based, human; conditions: Homo sapiens, alamarBlue
Experimental: Cells are seeded at 10,000 cells/well in 96-well plates in HUVEC specific cell culture media. Cells are plated and cultured overnight (16-24 h) at 37° C. After the overnight culture, cells are washed and fed with the Assay Medium. Test compounds are applied and incubated with the cells for the designated time period, after which the cell viability is measured by alamarBlue method. […] The final DMSO concentration is 1%.
Fluorescence readings are recorded after the test compound and alamarBlue incubation. The excitation and emission wavelengths are 530 nm and 590 nm, respectively.
The percent of control is calculated by comparing the readings in the presence of the test compound to the vehicle control. Subsequently, the percent inhibition is calculated by subtracting the percent control activity from 100. IC50 values (concentration causing a half-maximal inhibition of the control value) are determined by non-linear regression analysis of the concentration-response curves using the Hill equation.
The reference compound used for this assay is Staurosporine.

For `Cc1ccc(C(=O)Nc2cn(C(C)C)cn2)cc1C#Cc1cccnc1` [Example 25, N-(1-isopropylimidazol-4-yl)-4-methyl-3-[2-(3-pyridyl)ethynyl]benzamide], the “rescue of motor neuron survival in co-culture with patient-derived iAstrocytes (FIG. 3)” value ([1]; 72 hours co-culture, dose dependant, maximum responses close to positive control (1 μM Nilotinib)) was “rescue motor neuron survival”, the “efficacy at very high concentrations (motor neuron survival)” value ([1]; potentially due to compound toxicity) was “reduction in efficacy at very high concentrations” and the GI50 [2] was > 10 µM. It also gave an IC50 (HUVEC) of 45 µM.
